Test results: patent US20240124422A1, “MUTANT PI3K-ALPHA INHIBITORS AND THEIR USE AS PHARMACEUTICALS” (Prelude Therapeutics Incorporated, priority 2022, published 2024)
Like-named read-outs stand apart in the source and are kept apart here.

System: phosphorylation of AKT on Ser473 as a readout of the PI3K pathway in T-47D (heterozygous PIK3CA H1047R) cells
Experiment: PI3K pathway activation assay, pAKT Ser473 HTRF, T-47D cells
Assay type: cell-based
Conditions: two hours of treatment
Protocol: The inhibitory activity of compounds was evaluated by measuring phosphorylation of AKT on Ser473 as a readout of the PI3K pathway using HTRF (CisBio catalog number: 64AKSPE). These studies were conducted in the T-47D (heterozygous PIK3CA H1047R) and SKBR3 (PIK3CA WT) cell lines. Cells were maintained in a 37° C. incubator at 5% CO2 in the following media: T-47D: RPMI 1640, ATCC© Modification (Gibco, A10491-01) supplemented with 10% v/v FBS (Gibco, 26140-079), 1% penicillin streptomycin (Gibco, 15140-122), and 7.4 ug/mL insulin (MilliporeSigma, I9278); SKBR3: McCoy's 5a (Modified) Medium (Gibco, 16600-082) supplemented with 10% v/v FBS (Gibco, 26140-079). Cells were seeded in 384-well plates at a density of 4,000 cells/well. Compounds dissolved in DMSO were added using a digital dispense (D300E, Tecan) 10-point serial dilution. After two hours of treatment, cells were lysed for thirty minutes and then incubated with detection reagents per HTRF kit material and manufacturer's instructions. Fluorescence signal was measured with a multimode plate reader (Envision 2105, Perkin Elmer). Fluorescent signal was normalized to background and DMSO controls to obtain percent inhibition/activity for each compound.

Row | Structure (SMILES) | IC50 (Homo sapiens, T47D, 2 h) [nM] | IC50 (read-out: T47D pAKT IC50) [nM]
1 | COc1cccc(NC(C)c2cc(C)cc3c(=O)n(C)c(N4Cc5ccccc5C4)nc23)c1C(=O)O (stereo not drawn) [Example 29, 2-((1-(2-(isoindolin-2-yl)-3,6-dimethyl-4-oxo-3,4-dihydroquinazolin-8-yl)ethyl)amino)-6-methoxybenzoic acid] | 500 to 10000 | –
2 | Cc1cc(C(C)Nc2ccccc2C(=O)O)c2nc(N3CCCC34CC4)n(C)c(=O)c2c1 (stereo not drawn) [Example 114, 2-((1-(3,6-dimethyl-4-oxo-2-(4-azaspiro[2.4]heptan-4-yl)-3,4-dihydroquinazolin-8-yl)ethyl)amino)benzoic acid] | 500 to 10000 | –
3 | CC(Nc1ccccc1C(=O)O)c1cc(C#N)cc2c(=O)n(C)c(N3Cc4ccccc4C3)nc12 (stereo not drawn) [Example 50, 2-((1-(6-cyano-2-(isoindolin-2-yl)-3-methyl-4-oxo-3,4-dihydroquinazolin-8-yl)ethyl)amino)benzoic acid] | 500 to 10000 | –
4 | COc1ccc(NC(C)c2cc(C)cc3c(=O)n(C)c(N4CC5CC5C4)nc23)c(C(=O)O)c1 (stereo not drawn) [Example 122, 2-[1-[2-(3-Azabicyclo[3.1.0]hexan-3-yl)-3,6-dimethyl-4-oxoquinazolin-8-yl]ethylamino]-5-methoxybenzoic acid] | 500 to 10000 | –
5 | CC(Nc1ccccc1C(=O)O)c1cc(Br)cc2c(=O)n(C)c(N3CCC(F)(F)CC3)nc12 (stereo not drawn) [Example 74, 2-((1-(6-Bromo-2-(4,4-difluoropiperidin-1-yl)-3-methyl-4-oxo-3,4-dihydroquinazolin-8-yl)ethyl)amino)benzoic acid] | < 500 | –
6 | Cc1cc(C(C)Nc2ccccc2C(=O)O)c2nc(N3C[C@@H]4[C@H](C3)[C@H]4C(=O)N3CCOC[C@@H]3C)n(C)c(=O)c2c1 (stereo partly drawn) [Example 86, 2-((1-(3,6-Dimethyl-2-((1R,5S,6R)-6-((S)-3-methylmorpholine-4-carbonyl)-3-azabicyclo[3.1.0]hexan-3-yl)-4-oxo-3,4-dihydroquinazolin-8-yl)ethyl)amino)benzoic acid] | – | < 500
7 | Cc1cc(C(C)Nc2ccccc2C(=O)O)c2nc(N3CCCC3(C)C)n(C)c(=O)c2c1 (stereo not drawn) [Example 115, 2-((1-(2-(2,2-dimethylpyrrolidin-1-yl)-3,6-dimethyl-4-oxo-3,4-dihydroquinazolin-8-yl)ethyl)amino)benzoic acid] | < 500 | –
8 | Cc1cc(C(C)Nc2ccccc2C(=O)O)c2nc(N3CCC(C#N)CC3)n(C)c(=O)c2c1 (stereo not drawn) [Example 44, 2-((1-(2-(4-cyanopiperidin-1-yl)-3,6-dimethyl-4-oxo-3,4-dihydroquinazolin-8-yl)ethyl)amino)benzoic acid] | 500 to 10000 | –
9 | Cc1cc(C(C)Nc2ccccc2C(=O)O)c2nc(N3C[C@H]4CCC[C@H]4C3)n(C)c(=O)c2c1 (stereo partly drawn) [Example 113, 2-[1-[3,6-dimethyl-4-oxo-2-[(3aR,6aS)-3,3a,4,5,6,6a-hexahydro-1H-cyclopenta[c]pyrrol-2-yl]quinazolin-8-yl]ethylamino]benzoic acid] | < 500 | –
10 | Cc1cc(C(C)Nc2ccccc2C(=O)O)c2nc(C3CCCN3S(=O)(=O)F)n(C)c(=O)c2c1 (stereo not drawn) [Example 73, 2-[1-[2-(1-Fluorosulfonylpyrrolidin-2-yl)-3,6-dimethyl-4-oxoquinazolin-8-yl]ethylamino]benzoic acid] | 500 to 10000 | –
11 | Cc1cc(C(C)Nc2ccccc2C(=O)O)c2nc(N3CCC(c4ccccc4)C3)n(C)c(=O)c2c1 (single isomer, unassigned) [Example 53, 2-[1-[3,6-dimethyl-4-oxo-2-(3-phenylpyrrolidin-1-yl)quinazolin-8-yl]ethylamino]benzoic acid] | – | 500 to 10000
12 | Cc1cc(C(C)Nc2ccccc2C(=O)O)c2nc(N3CC4CC4C3)n(C)c(=O)c2c1F (single isomer, unassigned) [Example 95, 2-((1-(2-(3-Azabicyclo[3.1.0]hexan-3-yl)-5-fluoro-3,6-dimethyl-4-oxo-3,4-dihydroquinazolin-8-yl)ethyl)amino)benzoic acid] | < 500 | –
13 | CSc1ncc(NC(C)c2cc(C)cc3c(=O)n(C)c(N4CC5CC5C4)nc23)c(C(=O)O)n1 (stereo not drawn) [Example 118, 5-((1-(2-(3-Azabicyclo[3.1.0]hexan-3-yl)-3,6-dimethyl-4-oxo-3,4-dihydroquinazolin-8-yl)ethyl)amino)-2-(methylthio)pyrimidine-4-carboxylic acid] | 500 to 10000 | –
14 | C=CC(=O)Nc1c(C)cc(C(C)Nc2ccccc2C(=O)O)c2nc(N3CC4CC4C3)n(C)c(=O)c12 (stereo not drawn) [Example 38, 2-((1-(5-acrylamido-2-(3-azabicyclo[3.1.0]hexan-3-yl)-3,6-dimethyl-4-oxo-3,4-dihydroquinazolin-8-yl)ethyl)amino)benzoic acid] | 500 to 10000 | –
15 | Cc1cc(C(C)Nc2ccccc2C(=O)O)c2nc(N3C[C@@H]4C(NC(=O)OCC(F)(F)F)[C@@H]4C3)n(C)c(=O)c2c1 (stereo partly drawn) [Example 60, 2-((1-(3,6-dimethyl-4-oxo-2-((1R,5S,6s)-6-(((2,2,2-trifluoroethoxy)carbonyl)amino)-3-azabicyclo[3.1.0]hexan-3-yl)-3,4-dihydroquinazolin-8-yl)ethyl)amino)benzoic acid] | – | 500 to 10000
16 | CSc1ccc(NC(C)c2cc(C)cc3c(=O)n(C)c(N4CC5CC5C4)nc23)c(C(=O)O)n1 (stereo not drawn) [Example 124, 3-[1-[2-(3-Azabicyclo[3.1.0]hexan-3-yl)-3,6-dimethyl-4-oxoquinazolin-8-yl]ethylamino]-6-methylsulfanylpyridine-2-carboxylic acid] | < 500 | –
17 | Cc1cc(C(C)Nc2cc(F)ncc2C(=O)O)c2nc(N3CC4CC4C3)n(C)c(=O)c2c1 (stereo not drawn) [Example 125, 4-((1-(2-(3-Azabicyclo[3.1.0]hexan-3-yl)-3,6-dimethyl-4-oxo-3,4-dihydroquinazolin-8-yl)ethyl)amino)-6-fluoronicotinic acid] | 500 to 10000 | –
18 | CC(Nc1ccccc1C(=O)O)c1cccc2c(=O)n(C)c(N3Cc4ccccc4C3)nc12 (stereo not drawn) [Example 72, 2-((1-(2-(Isoindolin-2-yl)-3-methyl-4-oxo-3,4-dihydroquinazolin-8-yl)ethyl)amino)benzoic acid] | 500 to 10000 | –
19 | Cc1cc(C(C)Nc2ccccc2C(O)C(F)(F)F)c2nc(N3Cc4ccccc4C3)n(C)c(=O)c2c1 (stereo not drawn) [Example 12, 2-(isoindolin-2-yl)-3,6-dimethyl-8-(1-((2-(2,2,2-trifluoro-1-hydroxyethyl)phenyl)amino)ethyl)quinazolin-4(3H)-one] | 500 to 10000 | –
20 | Cc1cc(C(C)Nc2ccccc2C(=O)O)c2nc(N3C[C@@H]4[C@H](C3)[C@H]4C(=O)N(C)C(C)C)n(C)c(=O)c2c1 (stereo partly drawn) [Example 81, 2-((1-(2-((1R,5S,6R)-6-(Isopropyl(methyl)carbamoyl)-3-azabicyclo[3.1.0]hexan-3-yl)-3,6-dimethyl-4-oxo-3,4-dihydroquinazolin-8-yl)ethyl)amino)benzoic acid] | < 500 | –
21 | Cc1cc(C(C)Nc2ccccc2C(=O)O)c2nc(N3CCN(C(=O)C4CCCC4)CC3)n(C)c(=O)c2c1 (stereo not drawn) [Example 91, 2-((1-(2-(4-(Cyclopentanecarbonyl)piperazin-1-yl)-3,6-dimethyl-4-oxo-3,4-dihydroquinazolin-8-yl)ethyl)amino)benzoic acid] | < 500 | –
22 | Cc1cc(C(C)Nc2ccccc2C(=O)O)c2nc(N3C[C@@H]4C(C(=O)N5CCC[C@@H]5C)[C@@H]4C3)n(C)c(=O)c2c1 (stereo partly drawn) [Example 85, 2-((1-(3,6-Dimethyl-2-((1R,5S,6R)-6-((S)-2-methylpyrrolidine-1-carbonyl)-3-azabicyclo[3.1.0]hexan-3-yl)-4-oxo-3,4-dihydroquinazolin-8-yl)ethyl)amino)benzoic acid] | – | < 500
23 | Cc1cc(C(C)Nc2ccccc2C(=O)O)c2nc(N3C[C@@H]4[C@H](C3)[C@H]4C(=O)N(C)CC(F)F)n(C)c(=O)c2c1 (stereo partly drawn) [Example 84, 2-((1-(2-((1R,5S,6R)-6-((2,2-Difluoroethyl)(methyl)carbamoyl)-3-azabicyclo[3.1.0]hexan-3-yl)-3,6-dimethyl-4-oxo-3,4-dihydroquinazolin-8-yl)ethyl)amino)benzoic acid] | – | < 500
24 | Cc1cc(C(C)Nc2ccccc2C(=O)O)c2nc(N3C4CCC3CC4)n(C)c(=O)c2c1 (stereo not drawn) [Example 111, 2-[1-[2-(7-azabicyclo[2.2.1]heptan-7-yl)-3,6-dimethyl-4-oxoquinazolin-8-yl]ethylamino]benzoic acid] | < 500 | –
25 | C=CC(=O)N1CCCC1c1nc2c(C(C)Nc3ccccc3C(=O)O)cc(C)cc2c(=O)n1C (stereo not drawn) [Example 71, 2-[1-[3,6-Dimethyl-4-oxo-2-(1-prop-2-enoylpyrrolidin-2-yl)quinazolin-8-yl]ethylamino]benzoic acid] | 500 to 10000 | –
26 | Cc1cc(C(C)Nc2ccccc2C(=O)O)c2nc(N3C[C@@H]4C(C(=O)N(C)c5cccnc5)[C@@H]4C3)n(C)c(=O)c2c1 (stereo partly drawn) [Example 88, 2-((1-(3,6-Dimethyl-2-((1R,5S,6R)-6-(methyl(pyridin-3-yl)carbamoyl)-3-azabicyclo[3.1.0]hexan-3-yl)-4-oxo-3,4-dihydroquinazolin-8-yl)ethyl)amino)benzoic acid] | – | 500 to 10000
27 | Cc1cc(C(C)Nc2ccccc2C(=O)O)c2nc(N3CCC(NC(=O)OC(C)(C)C)C3)n(C)c(=O)c2c1 (stereo not drawn) [Example 110, 2-[1-[3,6-dimethyl-2-[3-[(2-methylpropan-2-yl)oxycarbonylamino]pyrrolidin-1-yl]-4-oxoquinazolin-8-yl]ethylamino]benzoic acid] | 500 to 10000 | –
